Assay results published in PubChem BioAssay (NCI).
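All cell lines were grown in 96-well plates and treated with compound for 48 hours. GI50 is the concentration that inhibits growth by half. TGI: total growth inhibition.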

Key:
Assay in all cases: inhibition of tumour cell growth, NCI panel, 48 h
A498 renal = tested on: A498 renal
MCF7 breast = tested on: MCF7 breast
SNB-19 CNS = tested on: SNB-19 CNS
HT29 colon = tested on: HT29 colon
EKVX NSCLC = tested on: EKVX NSCLC
HCT-116 colon = tested on: HCT-116 colon
HL-60(TB) leukemia = tested on: HL-60(TB) leukemia
BT-549 breast = tested on: BT-549 breast
SF-295 CNS = tested on: SF-295 CNS
SN12C renal = tested on: SN12C renal
SK-MEL-28 melanoma = tested on: SK-MEL-28 melanoma
HOP-62 NSCLC = tested on: HOP-62 NSCLC
UACC-62 melanoma = tested on: UACC-62 melanoma
HS 578T breast = tested on: HS 578T breast
OVCAR-3 ovarian = tested on: OVCAR-3 ovarian
DU-145 prostate = tested on: DU-145 prostate
M14 melanoma = tested on: M14 melanoma
A549 NSCLC = tested on: A549 NSCLC
PC-3 prostate = tested on: PC-3 prostate
MALME-3M melanoma = tested on: MALME-3M melanoma
RPMI-8226 leukemia = tested on: RPMI-8226 leukemia
SF-268 CNS = tested on: SF-268 CNS
U251 CNS = tested on: U251 CNS
CCRF-CEM leukemia = tested on: CCRF-CEM leukemia
MDA-MB-231 breast = tested on: MDA-MB-231 breast
MDA-MB-435 = tested on: MDA-MB-435
K-562 leukemia = tested on: K-562 leukemia
UO-31 renal = tested on: UO-31 renal
OVCAR-8 ovarian = tested on: OVCAR-8 ovarian
SF-539 CNS = tested on: SF-539 CNS
SNB-75 CNS = tested on: SNB-75 CNS
RXF 393 renal = tested on: RXF 393 renal
MOLT-4 leukemia = tested on: MOLT-4 leukemia
SW-620 colon = tested on: SW-620 colon
NCI-H226 lung = tested on: NCI-H226 lung
786-0 renal = tested on: 786-0 renal
OVCAR-5 ovarian = tested on: OVCAR-5 ovarian
LOX IMVI melanoma = tested on: LOX IMVI melanoma
KM12 colon = tested on: KM12 colon
ACHN renal = tested on: ACHN renal
HOP-92 NSCLC = tested on: HOP-92 NSCLC
IGROV1 ovarian = tested on: IGROV1 ovarian
NCI-H522 lung = tested on: NCI-H522 lung
SK-MEL-5 melanoma = tested on: SK-MEL-5 melanoma
COLO 205 colon = tested on: COLO 205 colon
HCC-2998 colon = tested on: HCC-2998 colon
MDA-MB-468 breast = tested on: MDA-MB-468 breast
NCI-H23 lung = tested on: NCI-H23 lung
SR leukemia = tested on: SR leukemia
UACC-257 melanoma = tested on: UACC-257 melanoma
TK-10 renal = tested on: TK-10 renal
SK-OV-3 ovarian = tested on: SK-OV-3 ovarian
OVCAR-4 ovarian = tested on: OVCAR-4 ovarian
HCT-15 colon = tested on: HCT-15 colon
CAKI-1 renal = tested on: CAKI-1 renal
NCI-H460 lung = tested on: NCI-H460 lung

`Clc1cccc(-c2ccc(OCCCN3CCN(c4ccncc4)CC3)cc2)c1` was tested, and the GI50 (A498 renal) was 5640 nM, the TGI (A498 renal) was 19300 nM and the GI50 (MCF7 breast) was 1500 nM. The TGI (MCF7 breast) was 3040 nM, the GI50 (SNB-19 CNS) was 1940 nM and the TGI (SNB-19 CNS) was 3980 nM. For the same compound, the GI50 (HT29 colon) was 1550 nM, the TGI (HT29 colon) was 3180 nM and the GI50 (EKVX NSCLC) was 1850 nM. It also gave a TGI (EKVX NSCLC) of 4650 nM, a GI50 (HCT-116 colon) of 1500 nM and a TGI (HCT-116 colon) of 3010 nM. For the same compound, the GI50 (HL-60(TB) leukemia) was 1700 nM, the TGI (HL-60(TB) leukemia) was 4480 nM and the GI50 (BT-549 breast) was 2500 nM. It also gave a TGI (BT-549 breast) of 5920 nM, a GI50 (SF-295 CNS) of 1750 nM and a TGI (SF-295 CNS) of 3240 nM. For the same compound, the GI50 (SN12C renal) was 1700 nM, the TGI (SN12C renal) was 3360 nM and the GI50 (SK-MEL-28 melanoma) was 1820 nM. The TGI (SK-MEL-28 melanoma) was 3520 nM, the GI50 (HOP-62 NSCLC) was 1670 nM and the TGI (HOP-62 NSCLC) was 3120 nM. The GI50 (UACC-62 melanoma) was 1730 nM, the TGI (UACC-62 melanoma) was 3170 nM and the GI50 (HS 578T breast) was 1960 nM. The TGI (HS 578T breast) was 5110 nM, the GI50 (OVCAR-3 ovarian) was 1790 nM and the TGI (OVCAR-3 ovarian) was 3560 nM. For the same compound, the GI50 (DU-145 prostate) was 2090 nM, the TGI (DU-145 prostate) was 4790 nM and the GI50 (M14 melanoma) was 1760 nM. It also gave a TGI (M14 melanoma) of 3260 nM, a GI50 (A549 NSCLC) of 1710 nM and a TGI (A549 NSCLC) of 3260 nM. It also gave a GI50 (PC-3 prostate) of 1940 nM, a TGI (PC-3 prostate) of 6150 nM and a GI50 (MALME-3M melanoma) of 1760 nM. It also gave a TGI (MALME-3M melanoma) of 3220 nM, a GI50 (RPMI-8226 leukemia) of 1890 nM and a TGI (RPMI-8226 leukemia) of 4910 nM. The GI50 (SF-268 CNS) was 2080 nM, the TGI (SF-268 CNS) was 4690 nM and the GI50 (U251 CNS) was 1570 nM. The TGI (U251 CNS) was 2990 nM, the GI50 (CCRF-CEM leukemia) was 1490 nM and the TGI (CCRF-CEM leukemia) was 3880 nM. It also gave a GI50 (MDA-MB-231 breast) of 1570 nM, a TGI (MDA-MB-231 breast) of 2980 nM and a GI50 (MDA-MB-435) of 1700 nM. The TGI (MDA-MB-435) was 3160 nM, the GI50 (K-562 leukemia) was 1630 nM and the TGI (K-562 leukemia) was 9430 nM. The GI50 (UO-31 renal) was 1650 nM, the TGI (UO-31 renal) was 3600 nM and the GI50 (OVCAR-8 ovarian) was 2340 nM. The TGI (OVCAR-8 ovarian) was 5810 nM, the GI50 (SF-539 CNS) was 1490 nM and the TGI (SF-539 CNS) was 2850 nM. It also gave a GI50 (SNB-75 CNS) of 1870 nM, a TGI (SNB-75 CNS) of 7270 nM and a GI50 (RXF 393 renal) of 1240 nM. The TGI (RXF 393 renal) was 2660 nM, the GI50 (MOLT-4 leukemia) was 2040 nM and the TGI (MOLT-4 leukemia) was 4710 nM. It also gave a GI50 (SW-620 colon) of 1700 nM, a TGI (SW-620 colon) of 3270 nM and a GI50 (NCI-H226 lung) of 3510 nM. For the same compound, the TGI (NCI-H226 lung) was 15100 nM, the GI50 (786-0 renal) was 1700 nM and the TGI (786-0 renal) was 3070 nM. For the same compound, the GI50 (OVCAR-5 ovarian) was 1930 nM, the TGI (OVCAR-5 ovarian) was 4350 nM and the GI50 (LOX IMVI melanoma) was 1620 nM. For the same compound, the TGI (LOX IMVI melanoma) was 3030 nM, the GI50 (KM12 colon) was 1770 nM and the TGI (KM12 colon) was 3280 nM. It also gave a GI50 (ACHN renal) of 1750 nM, a TGI (ACHN renal) of 3160 nM and a GI50 (HOP-92 NSCLC) of 1280 nM. The TGI (HOP-92 NSCLC) was 4280 nM, the GI50 (IGROV1 ovarian) was 1710 nM and the TGI (IGROV1 ovarian) was 3220 nM. The GI50 (NCI-H522 lung) was 1870 nM, the TGI (NCI-H522 lung) was 3790 nM and the GI50 (SK-MEL-5 melanoma) was 1650 nM. It also gave a TGI (SK-MEL-5 melanoma) of 3040 nM, a GI50 (COLO 205 colon) of 1640 nM and a TGI (COLO 205 colon) of 3080 nM. The GI50 (HCC-2998 colon) was 1820 nM, the TGI (HCC-2998 colon) was 3250 nM and the GI50 (MDA-MB-468 breast) was 1660 nM. It also gave a TGI (MDA-MB-468 breast) of 3260 nM, a GI50 (NCI-H23 lung) of 2070 nM and a TGI (NCI-H23 lung) of 5090 nM. The GI50 (SR leukemia) was 886 nM, the TGI (SR leukemia) was over 100000 nM and the GI50 (UACC-257 melanoma) was 2080 nM. For the same compound, the TGI (UACC-257 melanoma) was 4140 nM, the GI50 (TK-10 renal) was 2730 nM and the TGI (TK-10 renal) was 8210 nM. The GI50 (SK-OV-3 ovarian) was 2810 nM, the TGI (SK-OV-3 ovarian) was 10400 nM and the GI50 (OVCAR-4 ovarian) was 2600 nM. It also gave a TGI (OVCAR-4 ovarian) of 8320 nM, a GI50 (HCT-15 colon) of 1230 nM and a TGI (HCT-15 colon) of 2550 nM. For the same compound, the GI50 (CAKI-1 renal) was 1670 nM, the TGI (CAKI-1 renal) was 3330 nM and the GI50 (NCI-H460 lung) was 1740 nM. It also gave a TGI (NCI-H460 lung) of 3310 nM.
